The values that follow come from patent US20040156869A1, “2-substituted quinazolin-4-ylamine analogues” (Neurogen Corporation, priority 2002, published 2004).

Molecules are shown by their SMILES.

The term Ki denotes a dissociation constant, usually derived from enzyme kinetics or from competition with a known ligand. High values mean a looser hold on the target, low ones a stronger hold on the target.

For the test, the target named is human capsaicin receptor (VR1) (Homo sapiens, UniProt Q8NER1). Kind of test: Capsaicin receptor binding assay ([3H]RTX competition, VR1-transfected HEK293 membranes).
Sequence of human capsaicin receptor (VR1) (Q8NER1 whole entry): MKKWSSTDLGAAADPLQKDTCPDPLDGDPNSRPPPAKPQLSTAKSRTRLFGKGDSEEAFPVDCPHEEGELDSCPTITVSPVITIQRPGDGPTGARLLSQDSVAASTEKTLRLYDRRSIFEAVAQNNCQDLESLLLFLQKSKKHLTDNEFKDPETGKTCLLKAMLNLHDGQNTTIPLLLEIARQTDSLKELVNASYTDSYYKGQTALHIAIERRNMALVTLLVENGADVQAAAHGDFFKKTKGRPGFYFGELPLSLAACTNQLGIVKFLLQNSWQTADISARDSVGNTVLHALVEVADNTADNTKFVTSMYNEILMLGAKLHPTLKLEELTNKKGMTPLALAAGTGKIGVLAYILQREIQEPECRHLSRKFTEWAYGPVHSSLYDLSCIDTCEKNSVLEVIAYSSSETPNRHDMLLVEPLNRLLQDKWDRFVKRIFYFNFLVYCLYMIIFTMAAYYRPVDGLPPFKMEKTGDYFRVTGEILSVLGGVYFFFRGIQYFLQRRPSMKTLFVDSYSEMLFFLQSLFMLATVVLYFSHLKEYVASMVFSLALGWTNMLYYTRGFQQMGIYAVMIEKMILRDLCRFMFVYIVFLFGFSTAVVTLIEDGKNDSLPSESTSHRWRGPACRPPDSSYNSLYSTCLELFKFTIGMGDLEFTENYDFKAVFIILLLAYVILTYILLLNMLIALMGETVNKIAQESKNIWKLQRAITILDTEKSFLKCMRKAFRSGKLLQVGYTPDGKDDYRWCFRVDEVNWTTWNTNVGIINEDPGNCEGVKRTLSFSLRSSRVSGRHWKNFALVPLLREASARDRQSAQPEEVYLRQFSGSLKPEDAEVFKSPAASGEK
`COCC(C)(C)c1ccc(Nc2nc(COCC(C)C)nc3nc(-c4ncccc4C)ccc23)cc1` [Compound 215, [2-Isobutoxymethyl-7-(3-methyl-pyridin-2-yl)-pyrido[2,3-d]pyrimidin-4-yl]-[4-(2-methoxy-1,1-dimethyl-ethyl)-phenyl]-amine]: the Ki is < 1000 nM.

For the molecule `Cc1cccnc1-c1ccc2c(Nc3ccc(S(C)(=O)=O)cc3)nc(COCC(C)C)nc2n1` [Compound 216, [2-Isobutoxymethyl-7-(3-methyl-pyridin-2-yl)-pyrido[2,3-d]pyrimidin-4-yl]-(4-methanesulfonyl-phenyl)-amine], the inhibition constant (Ki) was < 1000 nM.

In the case of `CC(C)(C)c1ccc(Nc2nc(C(C)(C)CO)nc3cc(-c4ncccc4C(F)(F)F)ccc23)cc1` [Compound 217, 2-[4-(4-tert-Butyl-phenylamino)-7-(3-trifluoromethyl-pyridin-2-yl)-quinazolin-2-yl]-2-methyl-propan-1-ol], the Ki is < 1000 nM.

`CC(C)(CO)c1nc(Nc2ccc(C(F)(F)F)cc2)c2ccc(-c3ncccc3C(F)(F)F)cc2n1` [Compound 218, 2-Methyl-2-[4-(4-trifluoromethyl-phenylamino)-7-(3-trifluoromethyl-pyridin-2-yl)-quinazolin-2-yl]-propan-1-ol]: the Ki was < 1000 nM.

On to `CCOC(=O)c1nc(Nc2ccc(C(C)(C)C)cc2)c2ccc(-c3ncccc3C(F)(F)F)nc2n1` [Compound 219, 4-(4-tert-Butyl-phenylamino)-7-(3-trifluoromethyl-pyridin-2-yl)-pyrido[2,3-d]pyrimidine-2-carboxylic acid ethyl ester], for which the Ki was < 1000 nM.

In the case of `CC(C)(C)c1ccc(Nc2nc(C(=O)O)nc3nc(-c4ncccc4C(F)(F)F)ccc23)cc1` [Compound 220, 4-(4-tert-Butyl-phenylamino)-7-(3-trifluoromethyl-pyridin-2-yl)-pyrido[2,3-d]pyrimidine-2-carboxylic acid], the Ki was < 1000 nM.

For the molecule `CCN(CC)C(=O)C(C)(C)c1ccc(Nc2nc(COC)nc3nc(-c4ncccc4C(F)(F)F)ccc23)cc1` [Compound 221, N,N-Diethyl-2-{4-[2-methoxymethyl-7-(3-trifluoromethyl-pyridin-2-yl)-pyrido[2,3-d]pyrimidin-4-ylamino]-phenyl}-isobutyramide], the Ki was < 1000 nM.

Consider `CCN(CC)C(=O)C(C)(C)c1ccc(Nc2nc(COCC(C)C)nc3nc(-c4ncccc4C)ccc23)cc1` [Compound 222, N,N-Diethyl-2-{4-[2-isobutoxymethyl-7-(3-methyl-pyridin-2-yl)-pyrido[2,3-d]pyrimidin-4-ylamino]-phenyl}-isobutyramide], for which the inhibition constant (Ki) was < 1000 nM.

For `CCOCc1nc(Nc2ccc(C(F)(F)F)cc2)c2ccc(-c3ncccc3C(F)(F)F)nc2n1` [Compound 223, [2-Ethoxymethyl-7-(3-trifluoromethyl-pyridin-2-yl)-pyrido[2,3-d]pyrimidin-4-yl]-(4-trifluoromethyl-phenyl)-amine], the Ki is < 1000 nM.

As to `CCOCc1nc(Nc2ccc(C(F)(F)F)nc2)c2ccc(-c3ncccc3C(F)(F)F)nc2n1` [Compound 224, [2-Ethoxymethyl-7-(3-trifluoromethyl-pyridin-2-yl)-pyrido[2,3-d]pyrimidin-4-yl]-(6-trifluoromethyl-pyridin-3-yl)-amine], the Ki is < 1000 nM.

With `CCOCc1nc(Nc2ccc(C(C)(C)C#N)cc2)c2ccc(-c3ncccc3C(F)(F)F)nc2n1` [Compound 225, 2-{4-[2-Ethoxymethyl-7-(3-trifluoromethyl-pyridin-2-yl)-pyrido[2,3-d]pyrimidin-4-ylamino]-phenyl}-2-methyl-propionitrile], the Ki is < 1000 nM.

With `CC(C)COCc1nc(Nc2ccc(S(C)(=O)=O)cc2)c2ccc(-c3ncccc3Cl)nc2n1` [Compound 226, [7-(3-Chloro-pyridin-2-yl)-2-isobutoxymethyl-pyrido[2,3-d]pyrimidin-4-yl]-(4-methanesulfonyl-phenyl)-amine], the Ki is < 1000 nM.

On to `CCN(CC)CC(C)(C)c1ccc(Nc2nc(COC)nc3nc(-c4ncccc4C)ccc23)cc1` [Compound 227, [4-(2-Diethylamino-1,1-dimethyl-ethyl)-phenyl]-[2-methoxymethyl-7-(3-methyl-pyridin-2-yl)-pyrido[2,3-d]pyrimidin-4-yl]-amine], for which the inhibitory constant (Ki) is < 1000 nM.

Regarding `COC(=O)[C@@H](OCc1nc(Nc2ccc(C(C)(C)C)cc2)c2ccc(-c3ncccc3C(F)(F)F)cc2n1)C(C)C` [Compound 228, 2-[4-(4-tert-Butyl-phenylamino)-7-(3-trifluoromethyl-pyridin-2-yl)-quinazolin-2-ylmethoxy]-3-methyl-butyric acid methyl ester (S)], the Ki is < 1000 nM.

As to `C[C@@H](OCc1nc(Nc2ccc(C(C)(C)C)cc2)c2ccc(-c3ncccc3C(F)(F)F)cc2n1)C(=O)O` [Compound 229, (R)-2-[4-(4-tert-Butyl-phenylamino)-7-(3-trifluoromethyl-pyridin-2-yl)-quinazolin-2-ylmethoxy]-propionic acid (chiral)], the Ki is < 1000 nM.

Regarding `CC(C)[C@H](OCc1nc(Nc2ccc(C(C)(C)C)cc2)c2ccc(-c3ncccc3C(F)(F)F)cc2n1)C(=O)O` [Compound 230, (S)-2-[4-(4-tert-Butyl-phenylamino)-7-(3-trifluoromethyl-pyridin-2-yl)-quinazolin-2-ylmethoxy]-3-methyl-butyric acid], the Ki is < 1000 nM.

With `CCOCc1nc(Nc2ccc(C(C)C(F)(F)F)cc2)c2ccc(-c3ncccc3C(F)(F)F)nc2n1` (stereo not shown) [Compound 231, [2-Ethoxymethyl-7-(3-trifluoromethyl-pyridin-2-yl)-pyrido[2,3-d]pyrimidin-4-yl]-[4-(2,2,2-trifluoro-1-methyl-ethyl)-phenyl]-amine], the Ki was < 1000 nM.

With `CC(C)COCc1nc(Nc2ccc(C(C)C(F)(F)F)cc2)c2ccc(-c3ncccc3C(F)(F)F)nc2n1` (stereo not shown) [Compound 232, [2-Isobutoxymethyl-7-(3-trifluoromethyl-pyridin-2-yl)-pyrido[2,3-d]pyrimidin-4-yl]-[4-(2,2,2-trifluoro-1-methyl-ethyl)-phenyl]-amine], the Ki was < 1000 nM.

Consider `CC(C)COCc1nc(Nc2ccc(C(C)C(F)(F)F)cc2)c2ccc(-c3ncccc3Cl)nc2n1` (stereo not shown) [Compound 233, [7-(3-Chloro-pyridin-2-yl)-2-isobutoxymethyl-pyrido[2,3-d]pyrimidin-4-yl]-[4-(2,2,2-trifluoro-1-methyl-ethyl)-phenyl]-amine], for which the Ki is < 1000 nM.

For `CC(C)[C@@H](OCc1nc(Nc2ccc(C(C)(C)C)cc2)c2ccc(-c3ncccc3C(F)(F)F)cc2n1)C(=O)O` [Compound 234, 2-[4-(4-tert-Butyl-phenylamino)-7-(3-trifluoromethyl-pyridin-2-yl)-quinazolin-2-ylmethoxy]-3-methyl-butyric acid (R)], the Ki was < 1000 nM.

As to `COCc1nc(Nc2ccc(C(F)(F)F)cc2)c2ccc(-c3nccnc3Cl)nc2n1` [Compound 235, [7-(3-Chloro-pyrazin-2-yl)-2-methoxymethyl-pyrido[2,3-d]pyrimidin-4-yl]-(4-trifluoromethyl-phenyl)-amine], the Ki is < 1000 nM.

On to `COCc1nc(Nc2ccc(C(C)(C)C)cc2)c2ccc(-c3nccnc3Cl)nc2n1` [Compound 236, (4-tert-Butyl-phenyl)-[7-(3-chloro-pyrazin-2-yl)-2-methoxymethyl-pyrido[2,3-d]pyrimidin-4-yl]-amine], for which the Ki is < 1000 nM.

For `COCc1nc(Nc2ccc(C(C)C)cc2)c2ccc(-c3nccnc3Cl)nc2n1` [Compound 237, [7-(3-Chloro-pyrazin-2-yl)-2-methoxymethyl-pyrido[2,3-d]pyrimidin-4-yl]-(4-isopropyl-phenyl)-amine], the Ki is < 1000 nM.

As for `COCc1nc(Nc2ccc(C(C)(C)C#N)cc2)c2ccc(-c3nccnc3Cl)nc2n1` [Compound 238, 2-{4-[7-(3-Chloro-pyrazin-2-yl)-2-methoxymethyl-pyrido[2,3-d]pyrimidin-4-ylamino]-phenyl}-2-methyl-propionitrile], the Ki was < 1000 nM.

Consider `COCc1nc(Nc2ccc(S(=O)(=O)C(F)(F)F)cc2)c2ccc(-c3nccnc3Cl)nc2n1` [Compound 239, [7-(3-Chloro-pyrazin-2-yl)-2-methoxymethyl-pyrido[2,3-d]pyrimidin-4-yl]-(4-trifluoromethanesulfonyl-phenyl)-amine], for which the Ki was < 1000 nM.

For `COCc1nc(Nc2ccc(C(F)F)cc2)c2ccc(-c3ncccc3C(F)(F)F)nc2n1` [Compound 240, (4-Difluoromethyl-phenyl)-[2-methoxymethyl-7-(3-trifluoromethyl-pyridin-2-yl)-pyrido[2,3-d]pyrimidin-4-yl]-amine], the Ki is < 1000 nM.

As for `CCOCc1nc(Nc2ccc(C(F)F)cc2)c2ccc(-c3ncccc3C(F)(F)F)nc2n1` [Compound 241, (4-Difluoromethyl-phenyl)-[2-ethoxymethyl-7-(3-trifluoromethyl-pyridin-2-yl)-pyrido[2,3-d]pyrimidin-4-yl]-amine], the Ki was < 1000 nM.

Take `CC(C)COCc1nc(Nc2ccc(C(F)F)cc2)c2ccc(-c3ncccc3C(F)(F)F)nc2n1` [Compound 242, (4-Difluoromethyl-phenyl)-[2-isobutoxymethyl-7-(3-trifluoromethyl-pyridin-2-yl)-pyrido[2,3-d]pyrimidin-4-yl]-amine]: the Ki was < 1000 nM.

For the molecule `COCc1nc(Nc2ccc(C(F)F)cc2)c2ccc(-c3ncccc3Cl)nc2n1` [Compound 243, [7-(3-Chloro-pyridin-2-yl)-2-methoxymethyl-pyrido[2,3-d]pyrimidin-4-yl]-(4-difluoromethyl-phenyl)-amine], the inhibition constant (Ki) was < 1000 nM.

Take `CCOCc1nc(Nc2ccc(C(F)F)cc2)c2ccc(-c3ncccc3Cl)nc2n1` [Compound 244, [7-(3-Chloro-pyridin-2-yl)-2-ethoxymethyl-pyrido[2,3-d]pyrimidin-4-yl]-(4-difluoromethyl-phenyl)-amine]: the inhibitory constant (Ki) was < 1000 nM.

On to `CO[C@H](C)c1nc(Nc2ccc(C(F)(F)F)cc2)c2ccc(-c3ncccc3Cl)nc2n1` [Compound 245, (R)-[7-(3-Chloro-pyridin-2-yl)-2-(1-methoxy-ethyl)-pyrido[2,3-d]pyrimidin-4-yl]-(4-trifluoromethyl-phenyl)-amine], for which the Ki was < 1000 nM.
